Results as given in a melting point compilation (Tetko et al.; mined from patent text by program, amines drawn as free bases though some values may be those of a salt).

Compared with `[N-]=[N+]=Nc1ccc(CBr)cc1Cl`, `CC(=O)c1cc(CS(C)=O)ccc1O` (stereo not drawn) is higher in melting point: 75 to 77 °C for the first, 95 to 97 °C for the second.

First: COc1[nH]c(C)cc1C#N
Second: COc1ccc(-c2nc(C)cc(O)n2)cc1
The melting point of the first is lower: 105 °C for the first, 198 to 199 °C for the second.

First: O=[N+]([O-])c1cn2c(n1)O[C@@H](COc1ccc(N3CCC(CCc4ccc(OC(F)(F)F)cc4)CC3)cc1)C2
Second: CC(=O)NC[C@H]1CN(c2ccc(N3CCC(CC#N)CC3)cc2)C(=O)O1
The melting point of the first is higher: 209 to 212 °C for the first, 150 to 152 °C for the second.

First: CN(C)S(=O)(=O)c1ccc(-c2ccc(-c3ccc(S(=O)(=O)N(C)C)c(S)c3)cc2)cc1S
Second: COc1ccc(-c2cc(-c3ccc(F)cc3)ccc2C(=O)O)cc1OC
The melting point of the first is lower: 194 °C for the first, 210 °C for the second.

Compared with `Cc1c(CN2CCc3c(c4cccc(F)c4n3C)C2=O)ncn1S(=O)(=O)N(C)C`, `CN1Cc2c(C(N)=O)ncn2-c2ccc(F)cc2C1=O` is higher in melting point: 162 to 166 °C for the first, 272 to 273 °C for the second.

Compared with `COc1cc(C(C)C)ccc1C1(Cl)C(=O)c2cccc([N+](=O)[O-])c2C1=O` (stereo not drawn), `COC1=NC(C)=C(C(=O)OC(C)C)C(c2cccc([N+](=O)[O-])c2)N1C(=O)N(C)Cc1ccccc1` (stereo not drawn) is higher in melting point: 81 to 84 °C for the first, 145 to 146 °C for the second.

First: C=C(C)c1cccc(C(C)(C)NSc2nc3ccccc3s2)c1
Second: CC(CNc1ccc(C(=O)O)cc1)Oc1cccc2ccccc12 (stereo not drawn)
The melting point of the first is lower: 93 to 95 °C for the first, 142 to 144 °C for the second.

Compared with `O=P(O)(O)CNC1CCCCC1`, `NS(=O)(=O)c1cccnc1OC1CCCC1` is lower in melting point: 279 to 284 °C for the first, 134 to 135 °C for the second.

First: Cc1ccc2c(c1)C=Cc1cc(C)ccc1C2c1cn(Cc2nc(C(=O)N[C@@H](CC(=O)O)C(=O)O)cs2)c(=O)[nH]c1=S
Second: CCCCNC(=O)C(Cc1ccccc1)NC(=O)c1cc2cc(Cl)ccc2[nH]1 (stereo not drawn)
The melting point of the first is lower: 175 °C for the first, 192 to 193 °C for the second.

First: CC(CCCc1ccc(F)cc1)c1cc(O)c2c(c1)OC(C)(C)c1ccncc1-2 (stereo not drawn)
Second: CCOC(=O)c1c(-c2ccc(F)cc2)cc(-c2cccs2)nc1C(C)C
The melting point of the first is lower: 72 to 74 °C for the first, 114 to 115 °C for the second.

Compared with `CS(=O)(=O)c1ccc(OCCCCl)cc1`, `Cc1ccc(-c2ccc(S(C)(=O)=O)cc2)n1-c1ccc(-c2ccco2)cc1` is higher in melting point: 84 to 86 °C for the first, 145 to 147 °C for the second.

Compared with `COc1ccc2cc(-c3ccc(O)cc3)[nH]c(=O)c2c1`, `Oc1ccc(-c2nc3cc(O)cc(-c4ccco4)c3o2)cc1` is lower in melting point: 255 °C for the first, 120 to 121 °C for the second.

First: COC(=O)C1C=C2c3cccc4[nH]c(C)c(c34)CC2N(C)C1 (stereo not drawn)
Second: Cc1nc2c3c(ccc2n1C)C(O)C(OC(=O)C(C)(C)C)C(c1ccccc1)O3 (stereo not drawn)
The melting point of the first is higher: 154 °C for the first, 148 °C for the second.

First: CCCC1=C(C(=O)OCC)C(c2ccccc2N)c2c[nH]nc2N1 (stereo not drawn)
Second: CCCOC(=O)C1=C(C)N(C)C(C)=C(C(=O)OCCC)C1c1ccc(Br)cc1
The melting point of the first is higher: 179 °C for the first, 97 to 99 °C for the second.

First: CN(C(=O)Nc1ccc(Oc2ccccc2)cc1)C(Cl)C(Cl)(Cl)Cl (stereo not drawn)
Second: COC(=O)c1cn(-c2ccc3ccccc3c2)cn1
The melting point of the first is higher: 160 to 162 °C for the first, 143 to 144 °C for the second.

First: NC(=O)Cn1ccc(-c2ccc(Oc3ccc(F)cc3)cc2)n1
Second: OCc1ccc(-c2ccc3nc(-c4ccccc4)cn3c2)cc1
The melting point of the first is lower: 145 °C for the first, 238 to 240 °C for the second.

First: COCCNC(=O)c1ccc(C(=O)C=C(c2cc(Cl)cc(Cl)c2)C(F)(F)F)cc1
Second: Cc1nn(-c2cc(C(F)(F)F)ccc2Cl)cc1C(=O)N(CC(=O)O)c1ccc(OCC(C)(C)C)c(C#N)c1
The melting point of the first is lower: 150 to 153 °C for the first, 189 to 190 °C for the second.

Compared with `O=C(NCCc1c2n(c3ccc(O)nc13)CCCC2)c1ccco1`, `Cc1cc2c(nc1C(O)c1ccccc1)CCCCC2` (stereo not drawn) is lower in melting point: 270 °C for the first, 130 to 132 °C for the second.

`Cc1nn(C)c(SCc2ccccc2)c1[N+](=O)[O-]` and `Cc1c(C)c2c(c(C)c1NCc1ccccc1)OC(C)(C)C2=O` cannot be ordered by melting point: 82 to 83 °C for the first, 79 to 83 °C for the second.

First: Fc1cccc(Cl)c1COc1cccnc1NC(=S)Nc1ccc(Cl)cc1
Second: Nc1cccc(NC(=S)Nc2ccc(Cl)cc2)c1
The melting point of the first is higher: 162 to 164 °C for the first, 132 to 134 °C for the second.

First: CSC(=NC(=O)N(C)C)NC(=O)NC(C)(C)C
Second: CNC(=O)[C@@H](NC(=O)[C@H](CC(=O)O)CC(C)C)C(C)(C)C
The melting point of the first is lower: 74 to 78 °C for the first, 204 to 205 °C for the second.

First: COc1ccc([C@@H]2O[C@H](CCC(=O)O)C(=O)N(Cc3ccccc3)c3ccccc32)cc1 (relative stereo)
Second: NC(=O)c1ccccc1-c1ccc2ccc(SCc3ccccc3)nc2n1
The melting point of the first is lower: 107 to 109 °C for the first, 144 to 145 °C for the second.

First: O=C(c1ccc(O)c(Cl)c1Cl)c1ccnn1Cc1ccccc1
Second: OC(c1ccccc1)(C1CC1)C(c1ccccc1Cl)n1ccnc1 (stereo not drawn)
The melting point of the first is lower: 131 to 133 °C for the first, 146 °C for the second.

First: C[C@H](Cn1ncnn1)n1cnc2cc3c(=O)n(C4CC4)cnc3cc2c1=O
Second: CC(C)n1cnc2nc(-c3ccc(Cl)cc3)nn2c1=S
The melting point of the first is lower: 221 to 223 °C for the first, 230 to 232 °C for the second.

Compared with `CCC(C)(C)c1c(OCc2ncnn2C)nn2c(-c3ccccc3F)nncc12`, `Cn1cnc(COc2nn3c(-c4ccc(F)cc4)nnc3cc2-c2ccccc2)n1` is higher in melting point: 89 to 91 °C for the first, 233 to 235 °C for the second.

First: CC(C)NCC1(O)COc2ccc([N+](=O)[O-])cc2OC1 (stereo not drawn)
Second: CCOC(=O)c1ccc(Nc2ccc([N+](=O)[O-])cc2[N+](=O)[O-])cc1
The melting point of the first is lower: 97.5 to 99 °C for the first, 99 to 102 °C for the second.

First: COc1cc(NC(=O)OC(C)(C)C)c(NC(=O)CC(=O)c2cccc(-n3ccnc3)c2)cc1-c1ccc(F)cc1C
Second: COc1cc(C(=O)n2c3c(c4ccccc42)CC(C(=O)O)(C(=O)O)CC3)cc(OC)c1OC
The melting point of the first is lower: 99 to 102 °C for the first, 208 °C for the second.

Compared with `COc1cc(Nc2ncc(C#N)c(-c3ccccc3)n2)cc(OC)c1`, `COc1ccc(-c2csc(NC(=O)c3cc4ccccc4cn3)n2)cc1OC` is higher in melting point: 206 to 207 °C for the first, 228 to 230 °C for the second.

First: Cc1ccc(O)c2c1C(C(=O)N(Cc1ccc(N(C)C)cc1)c1ccc(C(C)C)cc1)CCC2 (stereo not drawn)
Second: CCCN(Cc1ccc(-c2ccccc2-c2nc(=O)s[nH]2)cc1)c1nc2ccccc2cc1C(=O)O
The melting point of the first is higher: 190 °C for the first, 118 to 124 °C for the second.

First: O=C(c1ccc(Cl)cc1)N1CCC(=Cc2ccc(C3=NCCO3)cc2F)CC1
Second: CN(C(=O)OCC(Cl)(Cl)Cl)C1CN(C(=O)Nc2ccc(C(F)(F)F)cc2)N=C1c1ccc(Cl)cc1 (stereo not drawn)
The melting point of the first is lower: 150 to 152 °C for the first, 169 to 170 °C for the second.

First: N#Cc1nn(-c2c(Cl)cc(C(F)(F)F)cc2Cl)cc1SC(F)(F)F
Second: CSc1ncc(C(=O)N(C)Cc2cc(C(F)(F)F)cc(C(F)(F)F)c2)c(-c2ccccc2)n1
The melting point of the first is higher: 126 to 128 °C for the first, 119 to 120 °C for the second.

First: Cc1cc(NC(=O)C(C)(C)C)n(C)n1
Second: CC(C)(C)NS(=O)(=O)Cc1ccccc1N
The melting point of the first is lower: 86 to 88 °C for the first, 115 to 117 °C for the second.

Compared with `Cc1cc(C#N)cc(C)c1OCCCC1=NNC(=O)CC1`, `COc1ccc2c(c1)NC(=O)C(CCCBr)O2` (stereo not drawn) is lower in melting point: 124 °C for the first, 102 to 103 °C for the second.

First: CCOC(=O)C1=CC(C)(C(=O)N(C)C)SC1N (stereo not drawn)
Second: CCCCNc1c(N)cc(C(=O)O)cc1S(N)(=O)=O
The melting point of the first is lower: 122 to 124 °C for the first, 211 to 212 °C for the second.

First: COc1c(F)cc2c(=O)c(C(=O)O)cn3c2c1CCC3C (stereo not drawn)
Second: O=C(O)c1cn(C2CSC2)c2c(F)c(F)c(F)cc2c1=O
The melting point of the first is higher: 234 to 236 °C for the first, 172 to 175 °C for the second.

Compared with `NC(=O)CCN1CCC(c2noc3cc(F)ccc23)CC1`, `Cn1nc(Br)c(I)c1-c1ccc(F)cc1Cl` is lower in melting point: 144 to 147 °C for the first, 139 to 141 °C for the second.

Compared with `NC(=O)c1c(Cl)ccc(Br)c1F`, `NC(=O)c1cccnc1Oc1cccc(Cl)c1` is higher in melting point: 157 to 158 °C for the first, 225 to 228 °C for the second.

First: Cc1ccc(-c2nn(CCCO)c(N)c2C(N)=O)cc1
Second: CC(=O)Nc1nc(CCc2ccc(CC(=O)O)s2)cs1
The melting point of the first is lower: 164 to 165 °C for the first, 172 to 174 °C for the second.

First: CCCCCCCC(=O)N1CCc2nnc(NN)cc2C1
Second: CCCCCCN=C1SC(=CC(=O)O)C(=O)N1CCCCCC
The melting point of the first is higher: 164 to 166 °C for the first, 66 to 69 °C for the second.

First: FC(F)(F)Oc1ccc2nc(COc3ccccc3)[nH]c2c1
Second: CCCCN/C(=C1/Sc2ccccc2C1=O)c1ccccc1
The melting point of the first is lower: 65 to 66 °C for the first, 106 to 107 °C for the second.

Compared with `Oc1c(Br)cc(-c2c3ccccc3c(Br)c3oc4ccccc4c23)c(O)c1Br`, `Oc1c(C2NCCc3ccccc32)ccc2ccccc12` (stereo not drawn) is lower in melting point: 226 to 228 °C for the first, 117 to 120 °C for the second.

Compared with `CCCc1c(OCCCCC2CC(=O)c3ccc(OCC(=O)O)c(CCC)c3O2)ccc(C(C)=O)c1O` (stereo not drawn), `CCn1cc(C(=O)O)c(=O)c2cc(F)c(N3Cc4ccc(C(=O)OC)cc4C3)cc21` is higher in melting point: 164 to 167 °C for the first, over 300 °C for the second.

First: Cc1ccc2c(OS(=O)(=O)C(F)(F)F)cc(=O)oc2c1
Second: C[C@@H]1CNCc2cc3ccc(C(F)(F)F)cc3n21
The melting point of the first is lower: 95 to 96 °C for the first, 123 to 125 °C for the second.

First: CCOc1nc(=O)c2cc(C(F)(F)F)cc([N+](=O)[O-])c2s1
Second: COc1ccc2nc3snc(C(=O)c4ncc(C)c(OC)c4C)n3c2c1
The melting point of the first is lower: 146 to 148 °C for the first, 196 to 197 °C for the second.

Compared with `Cc1cc([C@@H](O)[C@@H](C)N2CCC(O)(c3ccc(F)cc3)CC2)ccc1O[Si](C(C)C)(C(C)C)C(C)C` (relative stereo), `OC(CCN1CCN(c2ccccc2)CC1)c1ccccc1` (stereo not drawn) is lower in melting point: 188 to 189 °C for the first, 85 to 87 °C for the second.

First: CC(=O)NC[C@H]1CN(c2ccc(N3C[C@H]4CN(C(=O)COCc5ccccc5)C[C@H]4C3)c(F)c2)C(=O)O1
Second: CCCOc1cc2ccccc2c2c(=O)c(-c3ccoc3)c[nH]c12
The melting point of the first is lower: 138 to 140 °C for the first, 252 to 254 °C for the second.

First: Cc1cc(O)nc2c1CCCC2
Second: O=C(O)c1cc2cc(O)c(O)cc2nc1C(=O)O
The melting point of the first is lower: 250 to 252 °C for the first, over 300 °C for the second.

First: CC(=O)Oc1ccc(Cl)cc1C(=O)Cl
Second: COc1cc2c(cc1OC(C)=O)C1Cc3c(Cl)cc(OC)c(OC(C)=O)c3CN1CC2 (single isomer, unassigned; (-))
The melting point of the first is lower: 35 to 38 °C for the first, 202 to 203 °C for the second.

Going from `ClC(Cl)(Cl)c1cnnc2ccccc12` to `Nc1cc(=O)n(Cc2cccc(I)c2)[nH]1`, the melting point rises from 137 °C to 186 °C.

Compared with `CSc1nc(N)nn1C`, `CC1(C)Oc2ccc(C#N)cc2C(Oc2ccc(O)nn2)C1O` (stereo not drawn) is higher in melting point: 104 to 109 °C for the first, 232 to 233 °C for the second.

First: CCCCCCCCC#CCC#CCC#CCCCC(=O)O
Second: NS(=O)(=O)c1ccco1
The melting point of the first is lower: 69 to 70 °C for the first, 120 to 122 °C for the second.

For `O=c1c2c[nH]c3c(c-2nn1-c1ccc(Cl)cc1)CSC3`, the melting point was over 330 °C.
